Results taken from ChEMBL document CHEMBL3885881, “DrugMatrix”.

Organism: Rattus norvegicus
Test: DrugMatrix - Regimen: Daily Repeat
Format: toxicity, organism-based, Sprague-Dawley
Set-up: regimen Daily Repeat, gender Male, age 6-8 weeks
Conditions: in vivo, po, route oral GAVAGE, […]; for ABSOLUTE BASOPHIL / ABSOLUTE EOSINOPHIL / ABSOLUTE LYMPHOCYTE / ABSOLUTE MONOCYTE / ABSOLUTE SEGMENTED NEUTROPHIL / BASOPHIL / EOSINOPHIL / ERYTHROCYTE COUNT / HEMATOCRIT / HEMOGLOBIN / LEUKOCYTE COUNT / LYMPHOCYTE / MEAN CORPUSCULAR HEMOGLOBIN / MEAN CORPUSCULAR VOLUME / MONOCYTE / NEUTROPHIL / NUCLEATED RED BLOOD CELLS / PLATELET COUNT: tissue Blood; for ALANINE AMINOTRANSFERASE / ALBUMIN / ALKALINE PHOSPHATASE / ASPARTATE AMINOTRANSFERASE / BLOOD UREA NITROGEN / CARBON DIOXIDE / CHLORIDE / CHOLESTEROL / CREATINE PHOSPHOKINASE / CREATININE / GLUCOSE / LACTATE DEHYDROGENASE / LIPASE / PHOSPHORUS / POTASSIUM / SODIUM / TOTAL BILIRUBIN / TOTAL PROTEIN / URIC ACID: tissue Plasma
[1] = 70 mg/kg, 120 h, dose level M1, time 5 day
[2] = 700 mg/kg, 72 h, dose level High, time 3 day
[3] = 700 mg/kg, 120 h, dose level High, time 5 day

## CCCCCCCCc1ccc(O)cc1 [4-OCTYLPHENOL]
[1]
  ABSOLUTE BASOPHIL: 0 CELLS/uL
  ABSOLUTE EOSINOPHIL: 194 CELLS/uL
  ABSOLUTE LYMPHOCYTE: 9540.33 CELLS/uL
  ABSOLUTE MONOCYTE: 80.33 CELLS/uL
  ABSOLUTE SEGMENTED NEUTROPHIL: 918.67 CELLS/uL
  BASOPHIL: 0%
  EOSINOPHIL: 1.67%
  ERYTHROCYTE COUNT: 5.98 x10E6/uL
  HEMATOCRIT: 36.37%
  HEMOGLOBIN: 13.77 G/DL
  LEUKOCYTE COUNT: 10.73 x10E3/uL
  LYMPHOCYTE: 88.67%
  MEAN CORPUSCULAR HEMOGLOBIN: 23.03 pg
  MEAN CORPUSCULAR VOLUME: 60.9 fL
  MONOCYTE: 0.67%
  NEUTROPHIL: 9%
  NUCLEATED RED BLOOD CELLS: 0.33 /100WBC
  PLATELET COUNT: 1062 x10E3/uL
  ALANINE AMINOTRANSFERASE: 72 u/L
  ALBUMIN: 4.1 G/DL
  ALKALINE PHOSPHATASE: 380.67 u/L
  ASPARTATE AMINOTRANSFERASE: 88.67 u/L
  BLOOD UREA NITROGEN: 16.67 mg/dL
  CARBON DIOXIDE: 27 mmol/L
  CHLORIDE: 102.33 MEQ/L
  CHOLESTEROL: 57.67 mg/dL
  CREATINE PHOSPHOKINASE: 355.33 u/L
  CREATININE: 0.18 mg/dL
  GLUCOSE: 157.33 mg/dL
  LACTATE DEHYDROGENASE: 260.67 u/L
  LIPASE: 11.67 u/L
  PHOSPHORUS: 11.13 mg/dL
  POTASSIUM: 5.91 MEQ/L
  SODIUM: 142.87 MEQ/L
  TOTAL BILIRUBIN: 0.17 mg/dL
  TOTAL PROTEIN: 5.87 G/DL
  URIC ACID: 1.6 mg/dL
[2]
  ABSOLUTE BASOPHIL: 0 CELLS/uL
  ABSOLUTE EOSINOPHIL: 0 CELLS/uL
  ABSOLUTE LYMPHOCYTE: 8011 CELLS/uL
  ABSOLUTE MONOCYTE: 200 CELLS/uL
  ABSOLUTE SEGMENTED NEUTROPHIL: 2522.33 CELLS/uL
  BASOPHIL: 0%
  EOSINOPHIL: 0%
  ERYTHROCYTE COUNT: 6.31 x10E6/uL
  HEMATOCRIT: 38.63%
  HEMOGLOBIN: 14.83 G/DL
  LEUKOCYTE COUNT: 10.73 x10E3/uL
  LYMPHOCYTE: 73.33%
  MEAN CORPUSCULAR HEMOGLOBIN: 23.5 pg
  MEAN CORPUSCULAR VOLUME: 61.27 fL
  MONOCYTE: 2%
  NEUTROPHIL: 24.67%
  NUCLEATED RED BLOOD CELLS: 0.67 /100WBC
  PLATELET COUNT: 1294.33 x10E3/uL
  ALANINE AMINOTRANSFERASE: 165.67 u/L
  ALBUMIN: 3.93 G/DL
  ALKALINE PHOSPHATASE: 493 u/L
  ASPARTATE AMINOTRANSFERASE: 140.33 u/L
  BLOOD UREA NITROGEN: 33.33 mg/dL
  CARBON DIOXIDE: 26.67 mmol/L
  CHLORIDE: 97.67 MEQ/L
  CHOLESTEROL: 169.67 mg/dL
  CREATINE PHOSPHOKINASE: 748 u/L
  CREATININE: 0.58 mg/dL
  GLUCOSE: 147.33 mg/dL
  LACTATE DEHYDROGENASE: 302.33 u/L
  LIPASE: 10.33 u/L
  PHOSPHORUS: 12.5 mg/dL
  POTASSIUM: 5.29 MEQ/L
  SODIUM: 140.03 MEQ/L
  TOTAL BILIRUBIN: 0.9 mg/dL
  TOTAL PROTEIN: 6.17 G/DL
  URIC ACID: 1.03 mg/dL
[3]
  ABSOLUTE BASOPHIL: 0 CELLS/uL
  ABSOLUTE EOSINOPHIL: 0 CELLS/uL
  ABSOLUTE LYMPHOCYTE: 7185 CELLS/uL
  ABSOLUTE MONOCYTE: 222.33 CELLS/uL
  ABSOLUTE SEGMENTED NEUTROPHIL: 759.33 CELLS/uL
  BASOPHIL: 0%
  EOSINOPHIL: 0%
  ERYTHROCYTE COUNT: 7.06 x10E6/uL
  HEMATOCRIT: 42.33%
  HEMOGLOBIN: 15.83 G/DL
  LEUKOCYTE COUNT: 8.17 x10E3/uL
  LYMPHOCYTE: 85%
  MEAN CORPUSCULAR HEMOGLOBIN: 22.53 pg
  MEAN CORPUSCULAR VOLUME: 60.13 fL
  MONOCYTE: 3.33%
  NEUTROPHIL: 11.67%
  NUCLEATED RED BLOOD CELLS: 0 /100WBC
  PLATELET COUNT: 1069.33 x10E3/uL
  ALANINE AMINOTRANSFERASE: 175.67 u/L
  ALBUMIN: 4.03 G/DL
  ALKALINE PHOSPHATASE: 554.67 u/L
  ASPARTATE AMINOTRANSFERASE: 104 u/L
  BLOOD UREA NITROGEN: 17 mg/dL
  CARBON DIOXIDE: 27.67 mmol/L
  CHLORIDE: 100 MEQ/L
  CHOLESTEROL: 150.33 mg/dL
  CREATINE PHOSPHOKINASE: 369 u/L
  CREATININE: 0.37 mg/dL
  GLUCOSE: 133 mg/dL
  LACTATE DEHYDROGENASE: 179.33 u/L
  LIPASE: 10.67 u/L
  PHOSPHORUS: 11.13 mg/dL
  POTASSIUM: 6.27 MEQ/L
  SODIUM: 143.2 MEQ/L
  TOTAL BILIRUBIN: 0.3 mg/dL
  TOTAL PROTEIN: 6.37 G/DL
  URIC ACID: 1.23 mg/dL
